Test: Human HepG2 cell viability assay in 384 well format
Assay type: toxicity, cell-based
Design: dose 125 nL, time 70.5 hour; concentration not given beside the values
Details: HepG2 cells, read-out: Inhibition

COc1cc(F)c(S(=O)(=O)NCc2ccnc(N(C)C)n2)cc1OC
cytotoxicity at 70.5 h: -8.38%

Cc1cccc(CNCC2COC3(CCCC3)O2)c1C (stereo not drawn)
cytotoxicity at 70.5 h: 3.58%

O=C(NCc1cccnc1N1CCCCC1)c1ccc2cc[nH]c2c1
cytotoxicity at 70.5 h: -15.2%

O=C(NCc1ccc(Br)c(F)c1)Nc1cn[nH]c1
cytotoxicity at 70.5 h: -22.7%

Cc1noc(C)c1CN1CCCC1c1nnc2ccccn12 (stereo not drawn)
cytotoxicity at 70.5 h: -23.7%

Cc1ccc(CNC(=O)NCc2ccco2)s1
cytotoxicity at 70.5 h: -24.6%

CCS(=O)(=O)N1CCN(C(C)c2ncc(-c3ccccc3)o2)CC1 (stereo not drawn)
cytotoxicity at 70.5 h: -19.2%

CC(O)CN1CCN(C(=O)CCOc2ccccc2F)CC1 (stereo not drawn)
cytotoxicity at 70.5 h: -17.1%

CCn1c(C2CCCN2Cc2noc(C(C)(C)C)n2)nc2ccccc21 (stereo not drawn)
cytotoxicity at 70.5 h: -26.2%

Cc1ncsc1C(=O)OCCN1CCCCCC1=O
cytotoxicity at 70.5 h: -8.25%

Cc1nc(COc2ccc(S(=O)(=O)N(C)C)cc2)sc1C
cytotoxicity at 70.5 h: -24.1%

Cc1nnc(-c2cccc(C#N)c2)n1C1CCN(C(C)C)C1=O (stereo not drawn)
cytotoxicity at 70.5 h: -11.3%

CN(Cc1ccncc1)c1cncc(Br)c1
cytotoxicity at 70.5 h: -14.6%

CN(Cc1ccc([S+](C)[O-])cc1)c1cncc(Br)c1 (stereo not drawn)
cytotoxicity at 70.5 h: -23.7%

Cc1cc(C(=O)NCC(=O)N2CCOCC2)nn1C(C)(C)C
cytotoxicity at 70.5 h: -17.2%

Cn1ncnc1NCc1ccc(Br)cc1
cytotoxicity at 70.5 h: -5.73%

CC(CNC(=O)c1cnc[nH]1)Oc1ccccc1Br (stereo not drawn)
cytotoxicity at 70.5 h: -15.7%

CCCN(CCc1ccccn1)C(=O)Cn1cc(C)cn1
cytotoxicity at 70.5 h: -4.61%

COc1ccc(C(C)N2CCC(CO)CC2)cc1Cl (stereo not drawn)
cytotoxicity at 70.5 h: -2.59%

COc1ccc(C(C)N2CCC(OC)CC2)cc1Cl (stereo not drawn)
cytotoxicity at 70.5 h: -5.66%

CC(c1ccc(F)c(F)c1)N(C)CCS(=O)(=O)CCC(N)=O (stereo not drawn)
cytotoxicity at 70.5 h: -9.48%

OCc1ccc(N2CCN(c3ncccn3)CC2)c(F)c1
cytotoxicity at 70.5 h: -5.65%

NCc1ccc(N2CCN(c3ncccn3)CC2)c(F)c1
cytotoxicity at 70.5 h: 6.72%

CCOCCCC(=O)Nc1cc(C(N)=O)ccc1N1CCCCC1
cytotoxicity at 70.5 h: -9.3%

O=C(c1ccc2c(c1)[nH]c(=O)n2C1CCCC1)N1CCSCC1
cytotoxicity at 70.5 h: -4.63%

O=C(CNc1cccc(S(=O)(=O)C(F)F)c1)NCc1ccco1
cytotoxicity at 70.5 h: 11.3%

O=C(Nc1ccncc1)NC1CCN(c2ccccc2Cl)C1=O (stereo not drawn)
cytotoxicity at 70.5 h: -5.27%

CN(CCNS(C)(=O)=O)C(=O)c1ccc(Cl)c(Cl)c1
cytotoxicity at 70.5 h: -6.01%

COc1cccc(C(=O)N2CCN(CC(O)c3ccccc3)CC2)c1 (stereo not drawn)
cytotoxicity at 70.5 h: -9.4%

CC(C)(C)[S+]([O-])CCNC(=O)c1cccc2ncccc12 (stereo not drawn)
cytotoxicity at 70.5 h: -8.58%

O=C(CNc1cccc(CC(F)(F)F)c1)NCc1ccco1
cytotoxicity at 70.5 h: -4.32%

CN(C)CCCN(CCC#N)C(=O)Nc1ccc2[nH]ccc2c1
cytotoxicity at 70.5 h: -4.34%

COCCC(=O)Nc1nccn1Cc1ccc(Br)cc1
cytotoxicity at 70.5 h: -0.141%

CSCC(=O)Nc1nccn1Cc1ccc(Br)cc1
cytotoxicity at 70.5 h: -3.91%

O=C(c1ccc2c(c1)[nH]c(=O)n2C1CCCC1)N1CC(O)C1
cytotoxicity at 70.5 h: -3.54%

CN1CCN(C(=O)c2ccc3c(c2)[nH]c(=O)n3C2CCCC2)CC1
cytotoxicity at 70.5 h: 9.54%

Cc1ccc(C(=O)N(C)CCNS(C)(=O)=O)cc1Br
cytotoxicity at 70.5 h: -5.18%

COc1cccc(CC2CCCN2CCCC#N)c1 (stereo not drawn)
cytotoxicity at 70.5 h: -1.21%

CN(CC1CCN(CCO)CC1)CC(O)c1ccc(F)cc1 (stereo not drawn)
cytotoxicity at 70.5 h: -5.05%

Cn1cc(CCCN2CCN(Cc3cccc(O)c3)CC2)cn1
cytotoxicity at 70.5 h: -3.39%

CN(CC1CCN(CCO)CC1)CC(O)c1ccc(F)cc1F (stereo not drawn)
cytotoxicity at 70.5 h: -3.94%

CC(c1cccc(Cl)c1)N(C)CCS(=O)(=O)CCC(N)=O (stereo not drawn)
cytotoxicity at 70.5 h: -0.172%

Cc1nc(C)n(Cc2cccc(NC(=O)NC(C)(CO)C3CC3)c2)n1 (stereo not drawn)
cytotoxicity at 70.5 h: -6.87%

CS(=O)(=O)c1cccc(C(=O)NCC2(c3ccccc3)CC2)c1
cytotoxicity at 70.5 h: -11.2%

N#Cc1ccc(N2CCCN(CC(N)=O)CC2)cc1
cytotoxicity at 70.5 h: -9.42%

COCCN1CCC(CNC(=O)C2(S(C)(=O)=O)CCCC2)CC1
cytotoxicity at 70.5 h: -3.79%

Cn1c(=O)ccn(CC(=O)N2CCCC(n3cccn3)C2)c1=O (stereo not drawn)
cytotoxicity at 70.5 h: -9.63%

Cc1cc(C)n(C2CCCN(C(=O)Cn3ccc(=O)n(C)c3=O)C2)n1 (stereo not drawn)
cytotoxicity at 70.5 h: -7.57%

— ChEMBL document CHEMBL3507680, “University of Dundee, Gates Library screen for HepG2 cell viability”
